SMILES strings stand for the structures.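 Tested at 5 concentrations; 48 h exposure; 96-well plates; endpoints linearly interpolated, else capped at highest concentration. GI50 marks 50% less growth. TGI is the concentration that stops growth completely.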

The values below come from PubChem BioAssay (NCI).

What all share (experiment): DTP human tumour cell line panel, 48 h
Test [1] relates to SNB-19 CNS.
Test [2] deals with TK-10 renal.
Test [3] has as its system HOP-62 NSCLC.
The subject of test [4] is HS 578T breast.
Test [5] concerns LOX IMVI melanoma.
The subject of test [6] is RXF 393 renal.
For test [7], the system named is SN12C renal.
Test [8] relates to M14 melanoma.
The subject of test [9] is EKVX NSCLC.
Test [10] deals with A498 renal.

Consider `CCCCCC(=O)N1c2ccccc2NC2=C(C(=O)CC(c3ccc(OC)c(OC)c3)C2)C1c1ccc(C(F)(F)F)cc1` (stereo unspecified), for which the GI50 was greater than 100 µM in [1]; greater than 100 µM in test [2]; greater than 100 µM in test [3]; greater than 100 µM in [4]; greater than 100 µM in test [5]; 37.6 µM in test [6]. Besides, the GI50 in test [7] is greater than 100 µM. Moreover, the TGI in test [1], in [2], in test [3], in [4], in test [5] and in [6] was greater than 100 µM in each case. This molecule also showed a TGI in test [7] greater than 100 µM.
For the molecule `c1ccc(-c2nc(Nc3ccc(-c4nc5ccccc5[nH]4)cc3)nc(N3CCOCC3)n2)cc1`, the GI50 is 2.15 µM in test [2]; 1.73 µM in test [3]; 1.89 µM in test [4]; 1.34 µM in test [8]; 0.501 µM in test [6]; 1.59 µM in [9]. Moreover, the GI50 in [7] is 1.74 µM; in test [10], 1.09 µM. Also, the TGI in [2] was determined as 3.76 µM; in test [3], 3.52 µM; in [4], 6.04 µM; in test [8], 2.9 µM; in [6], 2.12 µM; in test [9], 3.42 µM. Further, the values for the TGI in test [7] and in [10] were 3.83 µM and 2.62 µM, respectively.
As to `COc1ccc(C2CC(=O)Nc3c2c(C)nn3-c2nc3ccccc3[nH]2)cc1` (stereo unspecified), the GI50 in [1] is 4.72 µM; in [2], 4.08 µM; in test [3], 2.56 µM; in test [4] it was 3.19 µM; in test [8], 2.54 µM; in [6], 2.63 µM. Also, the GI50 was 3.28 µM in test [7] and 1.89 µM in test [10]. Moreover, the TGI is greater than 100 µM in test [1]; greater than 38.9 µM in [2]; 6.55 µM in test [3]; 17.7 µM in [4]; 7.12 µM in test [8]; 8.92 µM in test [6]. Moreover, the TGI in test [7] was greater than 53.7 µM; in [10], 5.46 µM.
Turning to `C#Cc1cccc(NC(=O)Nc2ccc(NC(=O)CCl)cc2)c1`, the GI50 was 15.7 µM in [1]; 21.8 µM in [2]; 19 µM in test [3]; 17.8 µM in [4]; 1.57 µM in test [5]; 9.37 µM in test [6]. For the same molecule, the GI50 in test [9] is greater than 82.5 µM; in [7], 12.7 µM; in test [10], greater than 82.5 µM. Further, the TGI was 40.8 µM in test [1]; greater than 82.5 µM in test [2]; greater than 82.5 µM in test [3]; 81.7 µM in [4]; 3.19 µM in test [5]; 23.2 µM in test [6]. The figures for the TGI in [9], in [7] and in test [10] were greater than 82.5 µM, 29.8 µM and greater than 82.5 µM, respectively.
On to `OCCN(CO)CN(CN(CO)CCO)c1nc(N(CN(CO)CCO)CN(CO)CCO)nc(N(CN(CO)CCO)CN(CO)CCO)n1`, for which the GI50 is 2.32 ng/mL in [1]; 1.47 ng/mL in test [3]; 1.74 ng/mL in test [4]; 1.21 ng/mL in test [8]; 1.42 ng/mL in [9]; 1.49 ng/mL in test [7]. The total growth inhibition concentration (TGI) in [1] was 744 ng/mL; in test [3] it was 4.38 ng/mL; in [4] it was 45.1 ng/mL; in [8], 2.91 ng/mL; in test [9], 5.03 ng/mL; in test [7] it was 6.06 ng/mL.
With `Cc1sc2ncnc(Sc3nc4ccccc4[nH]3)c2c1C`, the GI50 is 47 µM in test [1]; 28.5 µM in test [2]; 18.7 µM in test [3]; 18.4 µM in [4]; 41.1 µM in test [8]; 21.2 µM in test [5]. Also, the results for the GI50 in [7] and in test [10] were 32.5 µM and 12.2 µM, respectively. Also, the TGI is greater than 100 µM in [1]; 62.4 µM in test [2]; 52 µM in test [3]; 67.6 µM in [4]; greater than 100 µM in test [8]; greater than 100 µM in [5]. For the same molecule, the TGI in test [7] is greater than 100 µM; in test [10], 52.9 µM.
`OCCNc1nc(NCCO)nc(Nc2ccc(C3=NN(c4cc(Cl)cc(Cl)c4)C(c4ccc(Cl)cc4)C3)cc2)n1` (stereo unspecified): the GI50 in test [1] was 2.07 µM; in [2] it was 1.89 µM; in [4] it was 2.22 µM; in test [8], 1.69 µM; in [5], 1.65 µM; in test [6], 1.44 µM. Further, the figures for the GI50 in test [9], in [7] and in test [10] were 2.04 µM, 1.82 µM and 1.73 µM, respectively. Moreover, the TGI came out at 4.12 µM in [1]; 3.72 µM in test [2]; 6.98 µM in [4]; 3.23 µM in test [8]; 3.01 µM in [5]; 2.91 µM in test [6]. The TGI turned out to be 4.72 µM in test [9], 3.47 µM in test [7] and 3.57 µM in test [10].
Consider `O=C(O)C(/C=C/c1ccco1)=N\Nc1nc(-c2ccc(Cl)cc2)cs1`, for which the GI50 is 9.64 µM in test [1]; 31.6 µM in test [2]; 16.5 µM in [3]; 12.7 µM in [8]; 6.62 µM in test [5]; 10.4 µM in [6]. Further, the GI50 was 17.1 µM in [9], 13.2 µM in test [7] and greater than 50 µM in test [10]. For the same molecule, the TGI was greater than 50 µM in test [1]; greater than 50 µM in [2]; greater than 50 µM in test [3]; greater than 50 µM in test [8]; greater than 50 µM in [5]; 28.4 µM in test [6]. The TGI in test [9], in [7] and in test [10] was greater than 50 µM each time.
As to `COc1ccc(Cl)cc1N1C(=O)C(Cl)=C(Nc2cccc(O)c2)C1=O`, the GI50 was 30.2 µM in [1]; 11.3 µM in test [2]; 23.7 µM in test [3]; 15.8 µM in test [4]; 14 µM in test [8]; 15.8 µM in test [5]. Moreover, the values for the GI50 in [6], in test [9] and in [7] were 7.36 µM, 32.8 µM and 14.7 µM, respectively. The TGI in test [1] was greater than 100 µM; in test [2] it was 31.9 µM; in test [3] it was 74.8 µM; in test [4] it was 46.2 µM; in test [8], 29.9 µM; in test [5], 32.8 µM. Moreover, the TGI in [6] is 29 µM; in [9] it was greater than 100 µM; in [7], 29.8 µM.
